According to US5843437A, “A82846 antibiotics” (Eli Lilly and Company, priority 1995, dated 1998):
In brackets after ≈: the same amount, converted by molar mass.

Experiments:
[1] = test system: Streptococcus sanguis; assay: MIC by standard agar-dilution assay (Table VIII); format: cell-based; details: 4 strains tested
Method: (§1) The MIC's in Tables VII and VIII were determined by standard agar-dilution assays.

[2] = test system: Streptococcus salivaris; assay: MIC by standard agar-dilution assay (Table VIII); format: cell-based; details: 1 strain tested
Method: as §1

[3] = test system: Streptococcus pneumoniae; assay: MIC by standard agar-dilution assay (Table VIII); format: cell-based; details: 20 strains tested
Method: as §1

[4] = test system: Streptococcus pyogenes; assay: MIC by standard agar-dilution assay (Table VIII); format: cell-based; details: 12 strains tested
Method: as §1

[5] = test system: Streptococcus sp. group. D; assay: MIC by standard agar-dilution assay (Table VIII); format: cell-based; details: 20 strains tested
Method: as §1

[6] = test system: Staphylococcus epidermidis; assay: MIC by standard agar-dilution assay (Table VIII); format: cell-based; details: 20 strains tested
Method: as §1

[7] = test system: Staphylococcus aureus; assay: MIC by standard agar-dilution assay (Table VIII); format: cell-based; details: 20 strains tested
Method: as §1

[8] = test system: Streptococcus mutans; assay: MIC by standard agar-dilution assay (Table VIII); format: cell-based; details: 2 strains tested
Method: as §1

[9] = test system: Streptococcus faecalis X-66; assay: Rat Endocarditis Test, catheter-induced (Table XII); format: in vivo, rats; details: for % Cured / % With 4 Log Drop: 16 days, 20 mg/kg × 28, subcutaneous at 12-hour intervals for 14 days; for % With 4 Log Drop: % of animals sacrificed; for effect in experimental catheter-induced endocarditis infection, compared with vancomycin: rats
Method: The A82846 antibiotics are also useful in the treatment of endocarditis. […] In this test, rats were prepared by inserting a plastic catheter into the right carotid artery, feeding it down into the […] of the heart and anchoring it securely. The animals were allowed to rest two days, and then the test organism, Streptococcus faecalis X-66, was administered intravenously. The organism titer was approximately 5×10^8 /mL; 0.5 mL was administered.
The compounds were administered subcutaneously 15 minutes prior to infection and at 12-hour intervals for 14 days, a total of 28 treatments. The animals were held 2 days after therapy; then, the hearts were removed, homogenized, diluted and plated on trypticase soy agar. Plates were incubated 48 hours before counting.
^a Catheterinduced endocarditis using Streptococcus faecalis X66
^b Subcutaneous doses at 12hour intervals for 14 days
^c % of animals sacrificed with 4 log drop

[10] = test system: Bacteroides thetaiotaomicron; assay: MIC against anaerobic bacteria, standard agar-dilution assay (Table IX); format: cell-based; details: 1 strain; Gram-negative anaerobe; 24-hour incubation
[11] = test system: Peptococcus constellatus; assay: as above; format: cell-based; details: 1 strain; Gram-positive anaerobe; 24-hour incubation
[12] = test system: Peptococcus magnus; assay: as above; format: cell-based; details: 3 strains; Gram-positive anaerobe; 24-hour incubation
[13] = test system: Peptococcus prevoti; assay: as above; format: cell-based; details: 4 strains; Gram-positive anaerobe; 24-hour incubation

SMILES | MIC [1] | MIC [2] | MIC [3] | MIC [4] | MIC [5] | MIC [6] | MIC [7] | MIC [8] | % Cured [9] | % With 4 Log Drop [9] | effect in experimental catheter-induced endocarditis infection, compared with vancomycin [9] | MIC [10] | MIC [11] | MIC [12] | MIC [13]
CN[C@H](CC(C)C)C(=O)N[C@H]1C(=O)N[C@@H](CC(N)=O)C(=O)N[C@H]2C(=O)N[C@H]3C(=O)N[C@H](C(=O)N[C@@H](C(=O)O)c4cc(O)cc(O)c4-c4cc3ccc4O)[C@H](O[C@@H]3C[C@@](C)(N)[C@H](O)[C@@H](C)O3)c3ccc(cc3)Oc3cc2cc(c3O[C@H]2O[C@@H](CO)[C@H](O)[C@@H](O)[C@@H]2O[C@H]2C[C@](C)(N)[C@@H](O)[C@H](C)O2)Oc2ccc(cc2Cl)[C@H]1O [A82846A] | 0.25 to 0.5 µg/mL | 1.0 µg/mL (≈ 0.642 µM) | ≤0.015 to 0.25 µg/mL | 0.125 to 0.25 µg/mL | 0.25 to 1.0 µg/mL | 0.25 to 2.0 µg/mL | 0.125 to 1.0 µg/mL | 0.125 to 0.5 µg/mL | 100% | 100% | as effective as vancomycin | 128 µg/mL (≈ 82.2 µM) | 0.25 µg/mL (≈ 0.16 µM) | 0.06 to 0.125 µg/mL | 1 to 2 µg/mL
CN[C@H](CC(C)C)C(=O)N[C@H]1C(=O)N[C@@H](CC(N)=O)C(=O)N[C@H]2C(=O)N[C@H]3C(=O)N[C@H](C(=O)N[C@H](C(=O)O)c4cc(O)cc(O)c4-c4cc3ccc4O)[C@H](O[C@H]3C[C@](C)(N)[C@@H](O)[C@H](C)O3)c3ccc(c(Cl)c3)Oc3cc2cc(c3O[C@@H]2O[C@H](CO)[C@@H](O)[C@H](O)[C@H]2O[C@H]2C[C@](C)(N)[C@@H](O)[C@H](C)O2)Oc2ccc(cc2Cl)[C@H]1O [A82846B] | 0.25 µg/mL (≈ 0.157 µM) | 0.25 µg/mL (≈ 0.157 µM) | 0.125 to 0.25 µg/mL | 0.125 to 0.25 µg/mL | 0.25 to 1.0 µg/mL | 0.5 to 1.0 µg/mL | 0.25 to 1.0 µg/mL | 0.125 to 1.0 µg/mL | 100% | 100% | as effective as vancomycin | 128 µg/mL (≈ 80.4 µM) | 0.25 µg/mL (≈ 0.157 µM) | 0.125 to 0.25 µg/mL | 1 to 4 µg/mL
